target: T1, MAGL (Homo sapiens, UniProt Q99685); experiment: 2-AG assay (MAGL inhibitory activity, hydrolysis of 2-arachidonoylglycerol to arachidonic acid followed by mass spectrometry); format: biochemical; conditions: 8 μM 2-arachidonoylglycerol, 15 min pre-incubation, 30 min incubation at RT, RapidFire MS readout
T1 sequence (Q99685 1-303): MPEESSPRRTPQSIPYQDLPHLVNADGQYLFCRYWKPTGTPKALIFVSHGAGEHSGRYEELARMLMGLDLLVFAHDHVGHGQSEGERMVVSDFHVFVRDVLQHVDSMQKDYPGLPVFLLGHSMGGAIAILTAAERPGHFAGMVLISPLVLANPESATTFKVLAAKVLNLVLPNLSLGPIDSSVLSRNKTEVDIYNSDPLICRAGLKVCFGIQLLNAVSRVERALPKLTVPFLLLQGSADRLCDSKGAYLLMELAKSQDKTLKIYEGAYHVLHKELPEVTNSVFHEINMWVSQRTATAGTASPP
Description: Compounds of formula (I) were profiled for MAGL inhibitory activity by determining the enzymatic activity by following the hydrolysis of the natural substrate 2-arachidonoylglycerol (2-AG) resulting in arachidonic acid, which can be followed by mass spectrometry. This assay is hereinafter abbreviated “2-AG assay”.
Compounds of formula (I) were profiled for MAGL inhibitory activity by determining the enzymatic activity by following the hydrolysis of the natural substrate 2-arachidonoylglycerol (2-AG) resulting in arachidonic acid, which can be followed by mass spectrometry. This assay is hereinafter abbreviated “2-AG assay”. The 2-AG assay was carried out in 384 well polypropylene assay plates. […] Compound dilutions were added to MAGL protein in assay buffer (50 mM TRIS, 1 mM EDTA, 0.01% (v/v) Tween-20, 2.5% (v/v) DMSO). After shaking, the plate was incubated for 15 min at RT. To start the reaction, 2-arachidonoylglycerol in assay buffer was added. The final concentrations in the assay was […] for MAGL protein and 8 μM 2-arachidonoylglyerol. After shaking and 30 min incubation at RT, the reaction was quenched by the addition of two assay volumes of acetonitrile containing 4 μM of d8-arachidonic acid. The amount of arachidonic acid formed was traced by an online SPE system (Agilent Rapidfire) coupled to a triple quadrupole mass spectrometer. A C18 SPE cartridge (Agilent G9205A) was used in an acetonitrile/water liquid setup. The mass spectrometer was operated in negative electrospray mode following the mass transitions 303.1→259.1 for arachidonic acid and 311.1→267.0 for d8-arachidonic acid. The activity of the compounds was calculated based on the ratio of intensities [arachidonic acid/d8-arachidonic acid].

Row | Structure (SMILES) | IC50
1 | Cc1cc(C(=O)N2CC3(CC(n4cnc(C5CC5)n4)C3)C2)cnc1OCC1(C)CC1 [Example 143, [6-(3-cyclopropyl-1,2,4-triazol-1-yl)-2-azaspiro[3.3]heptan-2-yl]-[5-methyl-6-[(1-methylcyclopropyl)methoxy]-3-pyridyl]methanone] | 53.2 nM
2 | O=C(N1CC2(CC(n3cnc(C4CC4)n3)C2)C1)N1CC2(C1)CN(S(=O)(=O)c1cccc(Cl)n1)C2 [Example 286, [2-[(6-chloro-2-pyridyl)sulfonyl]-2,6-diazaspiro[3.3]heptan-6-yl]-[6-(3-cyclopropyl-1,2,4-triazol-1-yl)-2-azaspiro[3.3]heptan-2-yl]methanone] | 58.6 nM
3 | CS(=N)(=O)c1cccc(CC2CC3(C2)CN(C(=O)N2CC4(CC(n5cnc(C6CC6)n5)C4)C2)C3)c1 (centres unmarked) [Example 461, [6-(3-cyclopropyl-1,2,4-triazol-1-yl)-2-azaspiro[3.3]heptan-2-yl]-[6-[[3-(methylsulfonimidoyl)phenyl]methyl]-2-azaspiro[3.3]heptan-2-yl]methanone] | 1.79 nM
4 | O=C(N1CC2(CC(n3cnc(C4(O)CC4)n3)C2)C1)N1CC2(CC[C@@H](Cc3cccc(S(=O)(=O)C(F)(F)F)c3)C2)C1 [Example 360, [6-[3-(1-hydroxycyclopropyl)-1,2,4-triazol-1-yl]-2-azaspiro[3.3]heptan-2-yl]-[(6S)-6-[[3-(trifluoromethylsulfonyl)phenyl]methyl]-2-azaspiro[3.4]octan-2-yl]methanone] | 0.13 nM
5 | O=C(N1CC(OCc2ccc(OC(F)(F)F)cc2F)C1)N1CC2(CC(n3cnc(C4CC4)n3)C2)C1 [Example 75, (6-(3-cyclopropyl-1H-1,2,4-triazol-1-yl)-2-azaspiro[3.3]heptan-2-yl)(3-((2-fluoro-4-(trifluoromethoxy)ben-zyl)oxy)azetidin-1-yl)methanone] | 2.7 nM
6 | CC(C)(Cc1cccc(OC2CN(C(=O)N3CC4(CC(n5cnc(C6CC6)n5)C4)C3)C2)c1)C(=O)O [Example 299, 3-[3-[1-[6-(3-cyclopropyl-1,2,4-triazol-1-yl)-2-azaspiro[3.3]heptane-2-carbonyl]azetidin-3-yl]oxyphenyl]-2,2-dimethyl-propanoic acid] | 95.7 nM
7 | O=C(N1CC2(CC(n3cnc(C4CC4)n3)C2)C1)N1CC2(C1)CN(S(=O)(=O)C13CC(C(F)(F)F)(C1)C3)C2 [Example 474, [6-(3-cyclopropyl-1,2,4-triazol-1-yl)-2-azaspiro[3.3]heptan-2-yl]-[2-[[3-(trifluoromethyl)-1-bicyclo[1.1.1]pentanyl]sulfonyl]-2,6-diazaspiro[3.3]heptan-6-yl]methanone] | 24.5 nM
8 | O=C(N1CC2(CC(n3cnc(C4CC4)n3)C2)C1)N1CC2(C1)CN(S(=O)(=O)c1cc(F)cc(F)c1)C2 [Example 213, [6-(3-cyclopropyl-1,2,4-triazol-1-yl)-2-azaspiro[3.3]heptan-2-yl]-[2-(3,5-difluorophenyl)sulfonyl-2,6-diazaspiro[3.3]heptan-6-yl]methanone] | 1.6 nM
9 | O=C(N1CC(Oc2ccc(C3CC3)nn2)C1)N1CC2(CC(n3cnc(C4CC4)n3)C2)C1 [Example 280, [3-(6-cyclopropylpyridazin-3-yl)oxyazetidin-1-yl]-[6-(3-cyclopropyl-1,2,4-triazol-1-yl)-2-azaspiro[3.3]heptan-2-yl]methanone] | 39.4 nM
10 | O=C(N1C[C@H]2CC(Oc3ccc(F)c(Cl)c3)C[C@H]2C1)N1CC2(CC(n3cnc(C4CC4)n3)C2)C1 (mixture of isomers) [Example 126, [6-(3-cyclopropyl-1,2,4-triazol-1-yl)-2-azaspiro[3.3]heptan-2-yl]-[rac-(3aS,6aR)-5-(4-fluoro-3-chloro-phenoxy)-3,3a,4,5,6,6a-hexahydro-1H-cyclopenta[c]pyrrol-2-yl]methanone] | 1.5 nM
11 | CS(=N)(=O)c1ccc(CC2CC3(C2)CN(C(=O)N2CC4(CC(n5cnc(C6CC6)n5)C4)C2)C3)cc1 (single isomer, unassigned) [Example 442, [6-(3-cyclopropyl-1,2,4-triazol-1-yl)-2-azaspiro[3.3]heptan-2-yl]-[6-[[4-(methylsulfonimidoyl)phenyl]methyl]-2-azaspiro[3.3]heptan-2-yl]methanone] | 2.22 nM
12 | O=C(N1CC2(CC(n3cnc(C4CC4)n3)C2)C1)N1CC2(CCN(Cc3ccc(C(F)(F)F)nn3)C2)C1 [Example 438, [6-(3-cyclopropyl-1,2,4-triazol-1-yl)-2-azaspiro[3.3]heptan-2-yl]-[7-[[6-(trifluoromethyl)pyridazin-3-yl]methyl]-2,7-diazaspiro[3.4]octan-2-yl]methanone] | 14.9 nM
13 | CC(C)(C)c1nc(-c2ccc(C(=O)N3CC4(CC(n5cc6c(n5)CCOC6)C4)C3)cc2)no1 [Example 14, [4-(5-tert-butyl-1,2,4-oxadiazol-3-yl)phenyl]-[6-(6,7-dihydro-4H-pyrano[4,3-c]pyrazol-2-yl)-2-azaspiro[3.3]heptan-2-yl]methanone] | 197 nM
14 | NC(=O)c1ccc(F)c(S(=O)(=O)N2CC3(CN(C(=O)N4CC5(CC(n6cnc(C7CC7)n6)C5)C4)C3)C2)c1 [Example 294] | 81.6 nM
15 | O=C(N1CC2(CC(n3cnc(C4CC4)n3)C2)C1)N1CC2(CN(Cc3ncc(F)cc3F)C2)C1 [Example 258, [6-(3-cyclopropyl-1,2,4-triazol-1-yl)-2-azaspiro[3.3]heptan-2-yl]-[6-[(3,5-difluoro-2-pyridyl)methyl]-2,6-diazaspiro[3.3]heptan-2-yl]methanone] | 19.4 nM
16 | NC(=O)c1ccc(S(=O)(=O)N2CC3(CN(C(=O)N4CC5(CC(n6cnc(C7CC7)n6)C5)C4)C3)C2)cc1 [Example 298, 4-[[6-[6-(3-cyclopropyl-1,2,4-triazol-1-yl)-2-azaspiro[3.3]heptane-2-carbonyl]-2,6-diazaspiro[3.3]heptan-2-yl]sulfonyl]benzamide] | 95.5 nM
17 | Cc1cn(C2CC3(C2)CN(C(=O)N2CC(OCc4ccc(S(F)(F)(F)(F)F)cc4)C2)C3)cn1 [Example 315, [6-(4-methylimidazol-1-yl)-2-azaspiro[3.3]heptan-2-yl]-[3-[[4-(pentafluoro-26-sulfanyl)phenyl]methoxy]azetidin-1-yl]methanone] | 240 nM
18 | CS(=O)(=O)c1cc(F)ccc1OC1CCC2(CC1)CN(C(=O)N1CC3(CC(n4cnc(C5CC5)n4)C3)C1)C2 [Example 238, [6-(3-cyclopropyl-1,2,4-triazol-1-yl)-2-azaspiro[3.3]heptan-2-yl]-[7-(4-fluoro-2-mesyl-phenoxy)-2-azaspiro[3.5]nonan-2-yl]methanone] | 6.5 nM
19 | O=C(N1CC(OCc2ccc(S(F)(F)(F)(F)F)cc2)C1)N1CC2(CC(n3cnc(C4CC4)c3)C2)C1 [Example 104, [6-(4-cyclopropylimidazol-1-yl)-2-azaspiro[3.3]heptan-2-yl]-[3-[[4-(pentafluoro-λ^6-sulfanyl)phenyl]methoxy]azetidin-1-yl]methanone] | 9.7 nM
20 | O=C(N1CC2(CC(n3cnc(C4CC4)n3)C2)C1)N1CC2(CN(Cc3ccc(F)cc3C(F)(F)F)C2)C1 [Example 196, [6-(3-cyclopropyl-1,2,4-triazol-1-yl)-2-azaspiro[3.3]heptan-2-yl]-[6-[[4-fluoro-2-(trifluoromethyl)phenyl]methyl]-2,6-diazaspiro[3.3]heptan-2-yl]methanone] | 0.4 nM

Source: patent publication US20240199587A1, “HETEROCYCLIC COMPOUNDS” (Hoffmann-La Roche Inc., priority 2021, published 2024)
